Data published in patent US20160303095A1, “METHODS OF TREATING HEPATITIS B VIRUS” (Gilead Sciences, Inc., priority 2015, published 2016).

Tests used:
KDM5A = KDM5A (Homo sapiens, UniProt P29375); test: Biochemical KDM inhibition assay (LANCE), KDM5A; details: read-out: Biochemical IC50 KDM 5A
Procedure: (§1) Representative compounds were characterized for their inhibition of KDM5 using biotinylated histone substrates. Inhibition was measured in vitro (CEREP Poitier, Le Bois l'Evêque, France) following experimental conditions described in Table 2. Briefly, the test compound, reference compound or water (control) was mixed with about 2-20 ng of recombinant, Human enzymes expressed in Sf9 cells in a buffer containing 45 mM Hepes/Tris (pH 7), 5 μM FAS, 100 μM ascorbic acid, 10 μM 2-oxoglutarate, 0.01% Tween 20 and 0.01% BSA. Thereafter, the reaction was initiated by adding the biotin-labeled substrate, and the mixture was incubated for 10-30 min at room temperature. For basal control measurements, the enzyme was omitted from the reaction mixture. Following incubation the reaction was stopped by adding 1 mM EDTA. After 5 min, the anti-methyl histone antibody labeled with europium chelate and the Ulight streptavidine (Perkin Elmer Waltham, Mass.) were added. After 60 min more, the fluorescence transfer was measured at λex=320 nm and λem=620 and λem=665 nm using a microplate reader (Envision, Perkin Elmer) (LANCE). The enzyme activity was determined by dividing the signal measured at λem=665 nm by that measured at 620 nm (ratio).

KDM5B = target: T1, KDM5B (Homo sapiens, UniProt Q9UGL1); test: Biochemical KDM inhibition assay (LANCE), KDM5B; details: read-out: Biochemical IC50 KDM 5B
T1 construct: host or cells: Sf9 cells
T1 sequence (Q9UGL1 whole entry): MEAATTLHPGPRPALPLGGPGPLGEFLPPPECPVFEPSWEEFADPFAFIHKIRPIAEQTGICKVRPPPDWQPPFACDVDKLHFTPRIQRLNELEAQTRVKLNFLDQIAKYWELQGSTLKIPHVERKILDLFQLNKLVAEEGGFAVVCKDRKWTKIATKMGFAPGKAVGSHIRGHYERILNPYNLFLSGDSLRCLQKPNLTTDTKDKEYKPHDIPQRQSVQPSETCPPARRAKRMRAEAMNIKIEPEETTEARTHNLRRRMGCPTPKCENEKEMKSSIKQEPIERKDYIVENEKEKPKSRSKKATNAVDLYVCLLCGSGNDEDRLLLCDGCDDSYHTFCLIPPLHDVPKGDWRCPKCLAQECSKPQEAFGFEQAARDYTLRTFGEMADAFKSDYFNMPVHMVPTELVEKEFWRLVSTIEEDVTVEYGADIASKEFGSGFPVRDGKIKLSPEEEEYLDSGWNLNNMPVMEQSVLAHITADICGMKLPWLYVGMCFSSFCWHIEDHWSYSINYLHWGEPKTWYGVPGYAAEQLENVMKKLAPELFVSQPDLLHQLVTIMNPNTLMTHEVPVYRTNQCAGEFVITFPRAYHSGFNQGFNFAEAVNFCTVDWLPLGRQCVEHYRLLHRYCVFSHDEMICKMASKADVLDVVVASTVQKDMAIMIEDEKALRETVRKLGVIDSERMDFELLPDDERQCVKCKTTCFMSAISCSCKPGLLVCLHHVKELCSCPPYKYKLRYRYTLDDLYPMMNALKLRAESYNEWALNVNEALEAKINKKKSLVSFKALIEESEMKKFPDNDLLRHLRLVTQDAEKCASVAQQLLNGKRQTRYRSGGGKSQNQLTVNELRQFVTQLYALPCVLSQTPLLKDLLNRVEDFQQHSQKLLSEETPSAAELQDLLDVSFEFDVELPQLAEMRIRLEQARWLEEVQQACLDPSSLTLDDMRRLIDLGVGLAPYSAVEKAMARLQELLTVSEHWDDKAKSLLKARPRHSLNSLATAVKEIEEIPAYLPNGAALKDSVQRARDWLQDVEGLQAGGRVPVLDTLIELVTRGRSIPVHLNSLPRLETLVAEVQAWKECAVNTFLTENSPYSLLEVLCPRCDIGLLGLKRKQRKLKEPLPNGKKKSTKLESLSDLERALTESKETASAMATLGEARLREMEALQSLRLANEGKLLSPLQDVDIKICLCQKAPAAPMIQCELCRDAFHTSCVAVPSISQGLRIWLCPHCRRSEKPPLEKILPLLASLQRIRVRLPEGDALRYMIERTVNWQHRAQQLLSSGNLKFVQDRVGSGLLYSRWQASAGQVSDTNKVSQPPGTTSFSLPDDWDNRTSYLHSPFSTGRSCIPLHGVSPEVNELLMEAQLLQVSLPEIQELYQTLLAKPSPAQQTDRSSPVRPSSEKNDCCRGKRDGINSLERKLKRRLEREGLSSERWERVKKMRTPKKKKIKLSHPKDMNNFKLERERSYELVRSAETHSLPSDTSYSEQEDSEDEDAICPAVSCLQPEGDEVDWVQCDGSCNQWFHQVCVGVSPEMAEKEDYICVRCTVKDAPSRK
Procedure: as §1

KDM6A = target: T2, KDM6A (Homo sapiens, UniProt O15550); test: Biochemical KDM inhibition assay (LANCE), KDM6A; details: read-out: Biochemical IC50 KDM 6A
T2 construct: host or cells: Sf9 cells
T2 sequence (O15550 whole entry): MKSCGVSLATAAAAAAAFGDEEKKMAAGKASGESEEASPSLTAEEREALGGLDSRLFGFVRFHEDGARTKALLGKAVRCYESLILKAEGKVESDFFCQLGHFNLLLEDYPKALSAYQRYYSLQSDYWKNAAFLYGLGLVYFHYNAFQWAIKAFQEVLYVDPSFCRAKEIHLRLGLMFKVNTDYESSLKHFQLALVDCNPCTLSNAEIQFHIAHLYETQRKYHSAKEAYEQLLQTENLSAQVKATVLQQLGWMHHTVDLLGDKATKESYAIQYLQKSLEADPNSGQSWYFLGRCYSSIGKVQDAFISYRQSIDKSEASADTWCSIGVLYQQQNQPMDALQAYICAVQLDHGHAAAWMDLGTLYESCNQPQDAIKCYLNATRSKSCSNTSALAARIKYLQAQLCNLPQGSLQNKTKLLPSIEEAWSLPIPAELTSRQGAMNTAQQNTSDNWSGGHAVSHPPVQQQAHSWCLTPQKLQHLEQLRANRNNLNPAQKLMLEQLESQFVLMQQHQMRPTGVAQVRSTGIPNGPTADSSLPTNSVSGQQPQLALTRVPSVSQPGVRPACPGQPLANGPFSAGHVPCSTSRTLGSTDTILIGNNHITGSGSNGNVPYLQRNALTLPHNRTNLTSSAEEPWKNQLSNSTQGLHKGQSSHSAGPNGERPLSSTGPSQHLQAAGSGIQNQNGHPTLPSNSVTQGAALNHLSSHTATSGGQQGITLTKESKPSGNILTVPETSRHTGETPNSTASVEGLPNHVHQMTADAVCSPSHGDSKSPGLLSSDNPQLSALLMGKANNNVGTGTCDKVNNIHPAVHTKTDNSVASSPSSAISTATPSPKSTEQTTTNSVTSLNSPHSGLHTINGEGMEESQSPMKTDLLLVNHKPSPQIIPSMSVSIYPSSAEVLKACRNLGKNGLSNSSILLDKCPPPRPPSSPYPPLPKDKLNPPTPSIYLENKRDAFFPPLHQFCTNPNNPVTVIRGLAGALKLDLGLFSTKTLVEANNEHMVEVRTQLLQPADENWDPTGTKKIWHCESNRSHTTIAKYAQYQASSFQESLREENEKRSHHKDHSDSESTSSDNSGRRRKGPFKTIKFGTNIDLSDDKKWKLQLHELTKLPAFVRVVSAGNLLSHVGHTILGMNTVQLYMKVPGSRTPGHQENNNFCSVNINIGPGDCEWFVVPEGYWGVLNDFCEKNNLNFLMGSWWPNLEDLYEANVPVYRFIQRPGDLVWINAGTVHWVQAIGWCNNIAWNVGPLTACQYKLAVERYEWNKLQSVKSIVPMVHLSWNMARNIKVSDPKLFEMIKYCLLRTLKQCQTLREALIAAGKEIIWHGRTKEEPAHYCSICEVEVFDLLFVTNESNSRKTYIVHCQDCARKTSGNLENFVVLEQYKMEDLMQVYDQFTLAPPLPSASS
Procedure: as §1

KDM4C = target: T3, KDM4C (Homo sapiens, UniProt Q9H3R0); test: Biochemical KDM inhibition assay (LANCE), KDM4C; details: read-out: Biochemical IC50 KDM 4C
T3 sequence (Q9H3R0 1-1056): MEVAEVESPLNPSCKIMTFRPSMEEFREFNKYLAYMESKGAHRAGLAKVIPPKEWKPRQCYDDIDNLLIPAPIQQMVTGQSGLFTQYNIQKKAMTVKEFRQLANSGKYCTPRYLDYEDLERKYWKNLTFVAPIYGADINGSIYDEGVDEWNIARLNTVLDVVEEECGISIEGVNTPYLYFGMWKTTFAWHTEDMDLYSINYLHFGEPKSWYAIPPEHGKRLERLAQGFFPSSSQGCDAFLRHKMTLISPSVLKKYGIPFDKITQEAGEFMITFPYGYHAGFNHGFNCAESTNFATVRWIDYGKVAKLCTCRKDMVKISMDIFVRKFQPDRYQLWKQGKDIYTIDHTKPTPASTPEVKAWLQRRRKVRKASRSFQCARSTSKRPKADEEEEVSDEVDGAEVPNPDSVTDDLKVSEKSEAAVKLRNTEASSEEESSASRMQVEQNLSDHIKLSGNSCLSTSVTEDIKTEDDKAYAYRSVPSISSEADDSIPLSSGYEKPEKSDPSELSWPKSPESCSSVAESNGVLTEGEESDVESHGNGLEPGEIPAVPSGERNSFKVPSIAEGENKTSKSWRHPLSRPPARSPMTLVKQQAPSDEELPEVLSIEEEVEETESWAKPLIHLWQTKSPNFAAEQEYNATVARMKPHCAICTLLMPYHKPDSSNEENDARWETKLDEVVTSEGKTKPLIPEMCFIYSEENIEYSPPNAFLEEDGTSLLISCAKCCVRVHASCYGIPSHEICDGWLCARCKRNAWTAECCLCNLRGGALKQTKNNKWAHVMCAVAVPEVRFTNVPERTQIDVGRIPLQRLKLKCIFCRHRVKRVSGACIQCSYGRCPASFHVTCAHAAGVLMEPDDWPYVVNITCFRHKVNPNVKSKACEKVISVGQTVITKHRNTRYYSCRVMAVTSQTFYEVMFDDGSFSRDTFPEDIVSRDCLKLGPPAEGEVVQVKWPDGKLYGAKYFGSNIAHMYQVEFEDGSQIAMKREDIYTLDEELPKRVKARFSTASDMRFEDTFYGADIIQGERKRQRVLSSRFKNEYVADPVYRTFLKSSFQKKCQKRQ

[1] = Alamar Blue cell viability assay; assay type: cell-based; details: human
Procedure: Alamar Blue cell viability reagent (Cat#DAL1100 Life Technologies, Chicago, Ill.) was diluted 1 to 10 in Maintenance Media and added to the cells. Cells were incubated for 4 h at 37° C. and the fluorescence signal, which is proportional to the number of live cells, was read using a fluorimeter with excitation/emission spectra set at 560/590 nm, respectively. Data were converted into percentages of the untreated control and non-linear regression was performed to calculate CC50 values.
PHH were plated in collagen coated tissue culture plates in Plating Media and after 4-hour incubation at 37° C., cells were switched to Maintenance Media. On the next day, the cells were infected with 500 genome equivalents per cell of Genotype-A clinical isolate 21P (ProteoGenex, Culver City, Calif.) in 100 μl Maintenance Media supplemented with 4% PEG 8000 (Cat#V3011 Promega, Madison, Wis.). After an overnight incubation the inoculum was removed and the cells were washed three times with William's Media E and maintained in Maintenance Media. […] Following the transfection, the cells were incubated at 37° C. in a humidified incubator and media was changed every 3-4 days. The assay was terminated on day 14 post infection and cell viability was assessed by Alamar Blue. The collected medium was used for determination of HBsAg and HBeAg levels by MSD ELISA while cells were processed for determination of HBV RNA using qPCR.

[2] = Alamar Blue cell viability assay; assay type: cell-based; details: human; D 28; PHH donor 8181; virus 21p

Sequence of KDM5A (P29375 whole entry): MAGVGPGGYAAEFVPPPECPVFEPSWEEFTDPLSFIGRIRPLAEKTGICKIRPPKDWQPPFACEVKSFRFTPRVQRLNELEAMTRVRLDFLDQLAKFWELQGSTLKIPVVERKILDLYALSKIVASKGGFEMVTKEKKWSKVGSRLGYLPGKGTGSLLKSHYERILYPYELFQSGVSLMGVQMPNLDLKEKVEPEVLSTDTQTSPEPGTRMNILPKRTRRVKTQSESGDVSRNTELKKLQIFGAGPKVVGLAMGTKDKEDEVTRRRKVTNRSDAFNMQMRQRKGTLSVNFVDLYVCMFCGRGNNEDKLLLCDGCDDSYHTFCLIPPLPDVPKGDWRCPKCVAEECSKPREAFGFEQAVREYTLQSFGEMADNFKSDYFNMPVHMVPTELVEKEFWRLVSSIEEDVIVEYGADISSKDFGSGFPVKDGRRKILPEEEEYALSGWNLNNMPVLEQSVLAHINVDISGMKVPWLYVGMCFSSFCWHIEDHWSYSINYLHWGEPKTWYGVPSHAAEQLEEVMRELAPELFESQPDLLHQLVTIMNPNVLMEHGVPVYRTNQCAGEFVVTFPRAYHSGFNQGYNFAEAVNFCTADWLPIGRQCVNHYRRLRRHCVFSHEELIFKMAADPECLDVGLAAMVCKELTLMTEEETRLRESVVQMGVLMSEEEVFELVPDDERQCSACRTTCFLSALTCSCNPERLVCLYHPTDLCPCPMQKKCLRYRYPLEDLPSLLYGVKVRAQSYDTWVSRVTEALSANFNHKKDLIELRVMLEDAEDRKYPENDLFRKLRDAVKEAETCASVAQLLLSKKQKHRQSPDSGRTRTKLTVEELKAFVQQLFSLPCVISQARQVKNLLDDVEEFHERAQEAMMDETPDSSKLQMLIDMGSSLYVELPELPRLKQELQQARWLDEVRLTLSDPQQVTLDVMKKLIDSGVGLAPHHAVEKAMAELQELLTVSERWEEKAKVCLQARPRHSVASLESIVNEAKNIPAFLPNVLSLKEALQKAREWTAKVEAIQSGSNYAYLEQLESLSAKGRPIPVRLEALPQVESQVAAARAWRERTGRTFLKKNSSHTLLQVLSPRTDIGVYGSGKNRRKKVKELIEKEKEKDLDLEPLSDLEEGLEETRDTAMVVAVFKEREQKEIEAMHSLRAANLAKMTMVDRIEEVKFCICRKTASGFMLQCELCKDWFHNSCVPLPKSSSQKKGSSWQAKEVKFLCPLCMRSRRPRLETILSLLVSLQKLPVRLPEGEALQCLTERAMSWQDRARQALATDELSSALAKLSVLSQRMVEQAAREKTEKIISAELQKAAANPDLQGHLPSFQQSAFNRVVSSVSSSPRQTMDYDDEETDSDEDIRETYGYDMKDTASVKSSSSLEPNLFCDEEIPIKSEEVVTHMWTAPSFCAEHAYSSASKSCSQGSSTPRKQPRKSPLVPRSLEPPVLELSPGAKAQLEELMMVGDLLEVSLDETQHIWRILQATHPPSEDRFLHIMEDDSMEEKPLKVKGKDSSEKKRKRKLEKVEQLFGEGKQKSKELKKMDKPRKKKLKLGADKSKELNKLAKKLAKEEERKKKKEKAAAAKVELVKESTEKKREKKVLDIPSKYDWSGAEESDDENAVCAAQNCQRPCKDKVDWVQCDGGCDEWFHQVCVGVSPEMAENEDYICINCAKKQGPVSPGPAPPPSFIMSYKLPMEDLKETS

SMILES	IC50 (KDM5A) [nM]	IC50 (KDM5B) [nM]	IC50 (KDM6A) [nM]	IC50 (KDM4C) [nM]	CC50 [1] [nM]	CC50 at 28 day [2] [nM]
CCN(CC)CCCCNCc1cc(C(=O)O)ccn1 [Example 18]	11	3.1	5500	350		
CCOC(=O)c1ccnc(CNCC(=O)N(CC)CCN(C)C)c1 [Example 8]					28200	20000
Cc1cc(Cl)ccc1COc1ccnn1-c1cc(C(=O)O)ccn1 [Example 11]	28	36	74	110	≥ 50000	
Nc1c(C(=O)O)ccnc1C(=O)O [Example 7, reference compound]	1200	510	930	110	≥ 100000	> 50000
O=C(O)c1ccncc1Nc1nn(CCN2CCC(F)(F)CC2)c2ccc(F)cc12 [Example 13]	21	21	140	260	≥ 50000	
N#CNC(=O)c1ccncc1Nc1nn(CCN2CCC(F)(F)CC2)c2ccc(F)cc12 [Example 14]	29	14		3100	≥ 50000	
CCN(CCN(C)C)C(=O)CNCc1cc(C(=O)O)ccn1 [Example 9]	24	14	1300	57	≥ 50000	> 100000
